Results on one compound are retold here after article PMC4448982, “LP-925219 maximizes urinary glucose excretion in mice by inhibiting both renal SGLT1 and SGLT2” (Pharmacology Research & Perspectives, 2015).

The target in one data set is dog SGLT2 (Canis lupus familiaris, UniProt Q5U9C9). Nature of the data set: 14C-AMG uptake assay, cells expressing dog SGLT2. As to conditions: mean ± SD. The class given is cell-based. The text has this: Methods for generating cell lines expressing mouse, rat, and dog SGLT1 and SGLT2 are published (Powell et al. [2013b], [2014]). Full-length coding sequence of human SGLT1 (NP_000334) and human SGLT2 (NP_003032.1) with an HA-tag at the N-terminus were cloned into the mammalian expression vector pIRESpuro2 (Clontech, Mountain View, CA). HEK293 cells (ATCC, Manassas, VA) were transfected with the pIRESpuro2 vector containing human SGLT1 or SGLT2 and bulk stable cell lines were selected in the presence of 0.5 μg/mL of puromycin.
Cell lines expressing SGLT1 or SGLT2 were plated into poly-D-lysine-coated 384-well plates, and culture overnight in cell growth medium. Cells were washed, and then incubated in uptake buffer ([…], […] KCl, […] CaCl2, […] MgCl2, […] HEPES/Tris, 1 mg/mL of bovine serum albumin, pH7.4) containing [^14C]α-methylglucopyranoside (^14C-AMG), a nonmetabolizable glucose analog specific for sodium-dependent glucose transporters (Wright and Turk [2004]). The inhibition of SGLT1 or SGLT2 was determined by measuring SGLT1/2-mediated ^14C-AMG uptake in the presence of increasing compound concentrations of LP-925219. […] Standard sigmoidal dose–response model curves were fitted, and the IC50 value was computed as the LP-925219 concentration that inhibited the ^14C-AMG uptake by 50% between baseline and maximum uptake.

In another data set the target is T1, intestinal SGLT1 (Mus musculus, UniProt Q8C3K6).
T1 construct: from tissue; host or cells: small intestine of living male C57BL/6-Tyrc-Brd mice
T1 sequence (Q8C3K6 1-665): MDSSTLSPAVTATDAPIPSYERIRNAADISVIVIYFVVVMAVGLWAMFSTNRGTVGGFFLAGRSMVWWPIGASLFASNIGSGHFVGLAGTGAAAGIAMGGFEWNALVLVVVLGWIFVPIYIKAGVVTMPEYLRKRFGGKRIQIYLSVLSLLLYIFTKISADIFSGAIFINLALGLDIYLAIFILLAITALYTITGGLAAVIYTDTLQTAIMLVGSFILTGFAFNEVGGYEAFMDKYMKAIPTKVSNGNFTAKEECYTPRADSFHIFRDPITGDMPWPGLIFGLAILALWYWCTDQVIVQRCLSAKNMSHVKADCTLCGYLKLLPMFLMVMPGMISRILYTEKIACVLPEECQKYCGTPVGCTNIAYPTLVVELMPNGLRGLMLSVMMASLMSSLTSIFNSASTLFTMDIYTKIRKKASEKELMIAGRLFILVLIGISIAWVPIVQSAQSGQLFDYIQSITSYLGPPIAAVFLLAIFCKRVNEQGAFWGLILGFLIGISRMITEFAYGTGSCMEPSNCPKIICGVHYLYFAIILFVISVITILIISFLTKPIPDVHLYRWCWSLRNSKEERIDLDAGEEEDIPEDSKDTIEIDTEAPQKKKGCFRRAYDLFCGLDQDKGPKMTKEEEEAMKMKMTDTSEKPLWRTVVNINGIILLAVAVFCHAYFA
Nature of the data set: Glucose-containing meal challenge in C57 mice. Type of data set: in vivo. The method, then: A meal consisting of low-fat diet (10% kcal as fat, D12450B; Research Diets, New Brunswick, NJ) supplemented with glucose was prepared by adding 50 g of low-fat diet powder and 9.4 g of glucose to water with a final volume of 94 mL. At 8:30 am, C57 mice in the fed state received either vehicle or 50 mg/kg LP-925219 by oral gavage; 30 min later, at Time = 0, each mouse received 25 mL/kg of the above meal (9.2 g/kg glucose, 2.5 g/kg protein, 0.6 g/kg fat) by oral gavage as described previously (Powell et al. [2013b]). Blood obtained from unanesthetized mice at 0, 10, and 30 min by tail nick, and at 60 min by retro-orbital bleed, was assayed for whole blood glucose using an Accu-Chek Aviva glucometer (Roche Diagnostics, Indianapolis, IN). The blood obtained at 60 min was also used to measure circulating levels of total GLP-1 (tGLP-1; Glucagon-Like Peptide-1 Total ELISA Kit, catalog #EZGLP1T-36K, EMD Millipore, Billerica, MA) as described previously (Powell et al. [2013b]). After their blood was drawn at 60 min, mice were anesthetized with isoflurane (TW Medical Veterinary Supply, Lago Vista, TX) and then euthanized by cervical dislocation. Cecal contents were then collected and analyzed for glucose and pH as described previously (Powell et al. [2013b]). Blood glucose time-course data were converted to area under the curve (AUC) values by trapezoidal summation using GraphPad Prism v4.03.
Mice received either vehicle or LP-925219 at a dose of 50 mg/kg (n = 5 for each group) by oral gavage; 30 min later the mice received, by oral gavage at Time 0, a glucose-containing meal challenge. (A) Blood glucose levels were measured at 0, 10, 30, and 60 min; for each mouse, blood glucose levels were used to calculate an AUC value for statistical analysis. At 60 min, blood was obtained for (B) tGLP-1 levels, and cecal contents were obtained and assayed for (C) cecal glucose and (D) cecal pH. LP-925219-treated value different from vehicle, *P < 0.05, **P < 0.01, ***P < 0.001. AUC, area under the curve.

Setting [1] is: 50 mg/kg oral gavage, 60 min after meal, vs vehicle.

Sequence of dog SGLT2 (Q5U9C9 entry or part of it): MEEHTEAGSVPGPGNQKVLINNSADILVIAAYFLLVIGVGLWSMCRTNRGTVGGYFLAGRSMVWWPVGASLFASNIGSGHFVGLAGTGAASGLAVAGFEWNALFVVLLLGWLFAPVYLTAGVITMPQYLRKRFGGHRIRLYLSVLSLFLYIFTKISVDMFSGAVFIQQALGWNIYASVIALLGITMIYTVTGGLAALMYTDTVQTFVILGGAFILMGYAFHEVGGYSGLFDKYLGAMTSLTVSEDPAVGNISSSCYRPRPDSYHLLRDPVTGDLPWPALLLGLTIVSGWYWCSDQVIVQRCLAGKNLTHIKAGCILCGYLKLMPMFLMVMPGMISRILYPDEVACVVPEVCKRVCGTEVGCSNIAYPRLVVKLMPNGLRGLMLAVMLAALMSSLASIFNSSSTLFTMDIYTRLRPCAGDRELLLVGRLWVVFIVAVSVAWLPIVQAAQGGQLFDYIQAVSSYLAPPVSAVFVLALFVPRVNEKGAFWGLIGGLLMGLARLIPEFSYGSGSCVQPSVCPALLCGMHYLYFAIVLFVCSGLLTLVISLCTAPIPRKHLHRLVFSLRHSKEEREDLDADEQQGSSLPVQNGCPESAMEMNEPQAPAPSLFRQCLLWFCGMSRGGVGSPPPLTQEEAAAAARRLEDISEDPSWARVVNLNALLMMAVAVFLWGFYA

`COc1ccc(Cc2cc([C@@H]3O[C@H](SC)[C@@H](O)[C@H](O)[C@H]3O)ccc2Cl)cc1` [LP-925219]: 1 ± 0.3 nM corresponded to half-maximal inhibition on dog SGLT2 (IC50). The “blood glucose AUC after meal challenge” value on intestinal SGLT1 (50 mg/kg oral gavage 30 min before meal, 0-60 min, vs vehicle, P < 0.05) was “significant decrease”. Moreover, at intestinal SGLT1 (setting [1]), the cecal glucose entry was “more glucose”, the “cecal pH” value is reported as “lower pH” and the “circulating total GLP-1” value was “increased levels”. The diarrhea result at intestinal SGLT1 (50 mg/kg oral gavage, short-term study) is recorded as “not observed”.
